Results published in ChEMBL document CHEMBL1151437, “Activity of a potent hepatitis C virus polymerase inhibitor in the chimpanzee model” (Antimicrob Agents Chemother, 2007).

Tests used:
Hepatitis C virus [1] = experiment: Antiviral activity against HCV 1a H77 with NS5B polymerase G554D mutation infected in chimpanzee measured on day 2; format: functional, organism-based, Hepacivirus hominis; details: genotype 1a H77, 48 h
Hepatitis C virus [2] = experiment: Antiviral activity against HCV 1b strain N with NS5B polymerase C316Y mutation infected in chimpanzee measured on day 2; format: functional, organism-based, Hepacivirus hominis; details: genotype 1b strain N, 48 h
Hepatitis C virus [3] = experiment: Drug resistance, ratio of EC50 for HCV 1b strain N with NS5B polymerase C316Y mutation to EC50 for wild type HCV 1b strain N infected in chimpanzee measured on day 2; format: functional, Hepacivirus hominis, genotype 1b strain N
Hepatitis C virus [4] = experiment: Drug resistance, ratio of EC50 for HCV 1b strain N with NS5B polymerase C316Y mutation to EC50 for wild type HCV 1b strain N infected in chimpanzee measured on day 28; format: functional, Hepacivirus hominis, genotype 1b strain N
Hepatitis C virus [5] = experiment: Antiviral activity against HCV 1a H77 with NS5B polymerase G554D mutation infected in chimpanzee measured on day 16; format: functional, organism-based, Hepacivirus hominis; details: genotype 1a H77, 384 h
Hepatitis C virus [6] = experiment: Antiviral activity against HCV 1b strain N with NS5B polymerase C316Y mutation infected in chimpanzee measured on day 11; format: functional, organism-based, Hepacivirus hominis; details: genotype 1b strain N, 264 h
Hepatitis C virus [7] = experiment: Antiviral activity against wild type HCV 1b strain N infected in chimpanzee; format: functional, organism-based, Hepacivirus hominis; details: genotype 1b strain N
Hepatitis C virus [8] = experiment: Antiviral activity against HCV 1b strain N with NS5B polymerase C316Y mutation infected in chimpanzee measured on day 5; format: functional, organism-based, Hepacivirus hominis; details: genotype 1b strain N, 120 h
Hepatitis C virus [9] = experiment: Antiviral activity against HCV 1a H77 with NS5B polymerase G554D mutation infected in chimpanzee measured on day 5; format: functional, organism-based, Hepacivirus hominis; details: genotype 1a H77, 120 h
Hepatitis C virus [10] = experiment: Drug resistance, ratio of EC50 for HCV 1a H77 with NS5B polymerase G554D mutation to EC50 for wild type HCV 1a H77 infected in chimpanzee measured on day 16; format: functional, Hepacivirus hominis, genotype 1a H77
Hepatitis C virus [11] = experiment: Antiviral activity against HCV 1b strain N with NS5B polymerase C316Y mutation infected in chimpanzee measured on day 28; format: functional, organism-based, Hepacivirus hominis; details: genotype 1b strain N, 672 h
Hepatitis C virus [12] = experiment: Drug resistance, ratio of EC50 for HCV 1a H77 with NS5B polymerase G554D mutation to EC50 for wild type HCV 1a H77 infected in chimpanzee measured on day 2; format: functional, Hepacivirus hominis, genotype 1a H77
Hepatitis C virus [13] = experiment: Drug resistance, ratio of EC50 for HCV 1b strain N with NS5B polymerase C316Y mutation to EC50 for wild type HCV 1b strain N infected in chimpanzee measured on day 11; format: functional, Hepacivirus hominis, genotype 1b strain N
Hepatitis C virus [14] = experiment: Antiviral activity against HCV 1a H77 with NS5B polymerase Y448C mutation infected in chimpanzee measured on day 28; format: functional, organism-based, Hepacivirus hominis; details: genotype 1a H77, 672 h
Hepatitis C virus [15] = experiment: Drug resistance, ratio of EC50 for HCV 1a H77 with NS5B polymerase G554D mutation to EC50 for wild type HCV 1a H77 infected in chimpanzee measured on day 5; format: functional, Hepacivirus hominis, genotype 1a H77
Hepatitis C virus [16] = experiment: Drug resistance, ratio of EC50 for HCV 1b strain N with NS5B polymerase C316Y mutation to EC50 for wild type HCV 1b strain N infected in chimpanzee measured on day 5; format: functional, Hepacivirus hominis, genotype 1b strain N
Hepatitis C virus [17] = experiment: Drug resistance, ratio of EC50 for HCV 1a H77 with NS5B polymerase Y448C mutation to EC50 for wild type HCV 1a H77 infected in chimpanzee measured on day 28; format: functional, Hepacivirus hominis, genotype 1a H77

COc1ccc2c(O[C@@H]3C[C@H]4C(=O)N[C@]5(C(=O)O)C[C@H]5/C=C\CCCCC[C@H](NC(=O)OC5CCCC5)C(=O)N4C3)cc(-c3csc(NC(C)C)n3)nc2c1 [CILUPREVIR]
EC50 (Hepatitis C virus [1]): 2.7 nM
EC50 (Hepatitis C virus [2]): 1.3 nM
fold change (FC) (Hepatitis C virus [3]): 1
fold change (FC) (Hepatitis C virus [4]): 1
EC50 (Hepatitis C virus [5]): 2.8 nM
EC50 (Hepatitis C virus [6]): 1.1 nM
EC50 (Hepatitis C virus [7]): 1.4 nM
EC50 (Hepatitis C virus [8]): 1.3 nM
EC50 (Hepatitis C virus [9]): 3.1 nM
fold change (FC) (Hepatitis C virus [10]): 0.9
EC50 (Hepatitis C virus [11]): 1.3 nM
fold change (FC) (Hepatitis C virus [12]): 0.9
fold change (FC) (Hepatitis C virus [13]): 0.8
EC50 (Hepatitis C virus [14]): 3.3 nM
fold change (FC) (Hepatitis C virus [15]): 1
fold change (FC) (Hepatitis C virus [16]): 1.1
fold change (FC) (Hepatitis C virus [17]): 1.1
